According to patent US20240059691A1 (KALVISTA PHARMACEUTICALS LIMITED, priority 2020, published 2024):

Tests used:
[1] = Pharmacokinetics following a single intravenous dose and a single oral dose in male Sprague-Dawley rats (oral bioavailability, half-life); assay type: in vivo; details: rat, plasma, 10% DMSO/10% Cremophor EL/80% SWFI; for bioavailability: read-out: F % (oral bioavailability)
Experimental: Pharmacokinetic studies of the compounds in Table 16 were performed to assess the pharmacokinetics following a single intravenous dose and a single oral dose in male Sprague-Dawley rats. Two rats were given a single intravenous dose of 1 mL/kg of a nominal 1 mg/mL (1 mg/kg) composition of test compound in 10% DMSO/10% Cremophor EL/80% SWFI vehicle. Example 2191 was dosed at 1 mL/kg of a nominal 2 mg/mL (2 mg/kg) using the same vehicle.
Two rats were given a single oral dose of 5 mL/kg of a nominal 1 mg/mL (5 mg/kg) composition of test compound in 10% DMSO/10% Cremophor EL/80% SWFI vehicle. Example 2191 was dosed at 5 mL/kg of a nominal 2 mg/mL (10 mg/kg) using the same vehicle.
Following intravenous dosing, blood samples were collected over a period of 12 h. Sample times were 2, 5, 15 and 30 min then 1, 2, 4, 6, and 12 h. Following oral dosing, blood samples were collected over a period of 24 h. Sample times were 5, 15 and 30 min then 1, 2, 4, 6, 8, 12 and 24 h.
Following collection, blood samples were centrifuged and the plasma fraction analysed for concentration of test compound by LCMS. Oral bioavailability and half-life calculations from these studies were obtained using Phoenix WinNonlin (v8.0) and are shown below: […]

Human Factor XIIa = Human Factor XIIa (Homo sapiens (Human), UniProt P00748); assay: Determination of FXIIa inhibition (fluorogenic substrate H-DPro-Phe-Arg-AFC, IC50 assay); assay type: biochemical; details: substrate H-DPro-Phe-Arg-AFC at Km, 25° C.; class scale A-G
Outline: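 Human FXIIa incubated at 25° C with fluorogenic substrate H-DPro-Phe-Arg-AFC at its Km concentration and varying compound concentrations. Fluorescence release monitored over 5 min at 25° C; linear rate expressed as % of uninhibited activity to derive IC50.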

Plasmin = Plasmin (Homo sapiens (Human), UniProt P00747); assay: Determination of related protease inhibition: Plasmin (fluorogenic substrate at Km); assay type: biochemical; details: 25° C.
Experimental: (§1) Determination of Related Protease Inhibition
(§2) In vitro inhibition of related proteases was determined using an ([…] assay based on standard literature methods (see e.g. Shori et al., Biochem. Pharmacol., 1992, 43, 1209; Bouckaert et al., European Journal of Medicinal Chemistry 110 (2016) 181). Human serine protease enzymes Plasma Kallikrein, KLK1, FXa, Plasmin, Thrombin and Trypsin were assayed for enzymatic activity using an appropriate fluorogenic substrate at Km concentration, FXIa at fixed substrate concentration of 100 μM, and various concentrations of the test compound. Protease activity was measured by monitoring the accumulation of liberated fluorescence from the substrate over […]. The linear rate of fluorescence increase per minute was expressed as percentage (%) activity. IC50 values were calculated as the concentration of inhibitor giving 50% inhibition of the uninhibited enzyme activity (100%).

Plasma Kallikrein = Plasma Kallikrein (Homo sapiens (Human), UniProt P03952); assay: Determination of related protease inhibition: Plasma Kallikrein (fluorogenic substrate at Km); assay type: biochemical; details: 25° C., read-out: IC50 (human PKal)
Outline: (§3)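 Human protease + fluorogenic substrate (at Km) + test cpd, varied concns; fluorescence kinetic read 5 min, 25 °C. Linear slope → % activity vs uninhibited control; IC50 at 50% inhibition.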

KLK1 = KLK1 (Homo sapiens (Human), UniProt P06870); assay: Determination of related protease inhibition: KLK1 (fluorogenic substrate at Km); assay type: biochemical; details: 25° C.
Outline: as §3

Thrombin = Thrombin (Homo sapiens (Human), UniProt P00734); assay: Determination of related protease inhibition: Thrombin (fluorogenic substrate at Km); assay type: biochemical; details: 25° C.
Outline: as §3

FXa = FXa (Homo sapiens (Human), UniProt P00742); assay: Determination of related protease inhibition: FXa (fluorogenic substrate at Km); assay type: biochemical; details: 25° C.
Outline: as §3

Trypsin = assay: Determination of related protease inhibition: Trypsin (fluorogenic substrate at Km); assay type: biochemical, human; details: 25° C.
Experimental: as §1, §2

FXIa = FXIa (Homo sapiens (Human), UniProt P03951); assay: Determination of related protease inhibition: FXIa (fixed substrate concentration of 100 μM); assay type: biochemical; details: 25° C.
Sequence of FXIa (P03951 388-625): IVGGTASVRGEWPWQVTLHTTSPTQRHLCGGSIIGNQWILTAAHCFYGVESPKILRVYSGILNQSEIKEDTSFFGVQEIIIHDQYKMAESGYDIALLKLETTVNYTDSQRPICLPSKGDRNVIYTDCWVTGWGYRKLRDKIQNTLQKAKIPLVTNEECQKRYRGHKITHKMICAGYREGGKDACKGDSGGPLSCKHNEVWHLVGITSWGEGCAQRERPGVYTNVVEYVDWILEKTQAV
Sequence of FXIa (P03951 19-387 partner): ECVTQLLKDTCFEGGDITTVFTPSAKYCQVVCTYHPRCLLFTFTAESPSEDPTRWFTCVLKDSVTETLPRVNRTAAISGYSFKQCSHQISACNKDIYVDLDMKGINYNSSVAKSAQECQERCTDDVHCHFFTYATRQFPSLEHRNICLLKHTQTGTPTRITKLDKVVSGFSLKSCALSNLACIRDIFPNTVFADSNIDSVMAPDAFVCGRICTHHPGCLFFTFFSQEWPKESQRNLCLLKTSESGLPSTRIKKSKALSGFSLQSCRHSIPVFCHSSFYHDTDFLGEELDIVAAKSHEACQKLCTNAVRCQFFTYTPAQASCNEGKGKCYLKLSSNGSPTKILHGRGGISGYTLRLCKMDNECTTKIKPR

Sequence of Plasmin (P00747 581-810): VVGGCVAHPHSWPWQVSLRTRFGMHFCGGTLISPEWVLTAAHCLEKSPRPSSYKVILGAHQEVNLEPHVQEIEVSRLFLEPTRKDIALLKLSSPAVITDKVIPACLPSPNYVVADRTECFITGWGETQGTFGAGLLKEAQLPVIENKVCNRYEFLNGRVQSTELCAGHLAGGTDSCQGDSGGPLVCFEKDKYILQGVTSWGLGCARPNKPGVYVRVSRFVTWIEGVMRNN
Sequence of Plasmin (P00747 97-580 partner): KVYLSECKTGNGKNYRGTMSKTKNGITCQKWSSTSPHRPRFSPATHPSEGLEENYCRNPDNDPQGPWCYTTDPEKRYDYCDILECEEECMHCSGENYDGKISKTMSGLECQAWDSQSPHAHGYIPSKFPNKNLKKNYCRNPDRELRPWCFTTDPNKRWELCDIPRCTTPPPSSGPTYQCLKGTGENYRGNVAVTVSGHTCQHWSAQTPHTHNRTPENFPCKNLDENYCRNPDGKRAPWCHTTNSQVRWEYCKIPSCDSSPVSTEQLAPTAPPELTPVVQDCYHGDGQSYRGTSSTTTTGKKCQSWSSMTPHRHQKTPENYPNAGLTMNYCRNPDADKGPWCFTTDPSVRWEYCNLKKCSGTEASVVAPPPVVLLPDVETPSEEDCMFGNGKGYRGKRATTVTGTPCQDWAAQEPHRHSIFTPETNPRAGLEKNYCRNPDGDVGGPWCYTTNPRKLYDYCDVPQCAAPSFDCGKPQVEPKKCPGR
Sequence of Human Factor XIIa (P00748 373-615): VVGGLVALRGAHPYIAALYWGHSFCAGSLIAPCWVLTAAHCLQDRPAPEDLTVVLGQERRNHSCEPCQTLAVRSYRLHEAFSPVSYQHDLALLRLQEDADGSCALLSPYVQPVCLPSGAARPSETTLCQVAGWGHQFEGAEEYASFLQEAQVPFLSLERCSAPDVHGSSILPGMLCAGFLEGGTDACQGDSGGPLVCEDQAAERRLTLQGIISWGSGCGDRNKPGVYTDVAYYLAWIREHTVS
Sequence of FXa (P00742 235-488): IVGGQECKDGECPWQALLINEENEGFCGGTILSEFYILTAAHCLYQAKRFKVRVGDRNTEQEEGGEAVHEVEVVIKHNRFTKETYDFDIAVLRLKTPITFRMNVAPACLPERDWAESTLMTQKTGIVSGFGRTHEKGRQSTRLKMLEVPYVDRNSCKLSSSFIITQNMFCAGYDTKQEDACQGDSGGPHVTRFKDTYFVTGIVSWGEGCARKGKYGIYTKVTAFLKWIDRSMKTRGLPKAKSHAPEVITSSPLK
Sequence of FXa (P00742 41-179 partner): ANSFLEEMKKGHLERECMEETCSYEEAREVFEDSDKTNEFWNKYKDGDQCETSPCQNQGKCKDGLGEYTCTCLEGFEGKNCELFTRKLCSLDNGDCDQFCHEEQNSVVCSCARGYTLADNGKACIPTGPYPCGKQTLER
Sequence of Plasma Kallikrein (P03952 391-638): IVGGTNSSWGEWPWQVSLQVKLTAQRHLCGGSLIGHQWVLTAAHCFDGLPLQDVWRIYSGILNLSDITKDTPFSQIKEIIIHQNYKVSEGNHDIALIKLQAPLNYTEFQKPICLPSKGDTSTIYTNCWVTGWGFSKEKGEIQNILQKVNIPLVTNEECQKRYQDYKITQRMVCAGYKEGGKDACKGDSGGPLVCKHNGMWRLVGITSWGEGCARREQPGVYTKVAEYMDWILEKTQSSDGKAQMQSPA
Sequence of Plasma Kallikrein (P03952 20-390 partner): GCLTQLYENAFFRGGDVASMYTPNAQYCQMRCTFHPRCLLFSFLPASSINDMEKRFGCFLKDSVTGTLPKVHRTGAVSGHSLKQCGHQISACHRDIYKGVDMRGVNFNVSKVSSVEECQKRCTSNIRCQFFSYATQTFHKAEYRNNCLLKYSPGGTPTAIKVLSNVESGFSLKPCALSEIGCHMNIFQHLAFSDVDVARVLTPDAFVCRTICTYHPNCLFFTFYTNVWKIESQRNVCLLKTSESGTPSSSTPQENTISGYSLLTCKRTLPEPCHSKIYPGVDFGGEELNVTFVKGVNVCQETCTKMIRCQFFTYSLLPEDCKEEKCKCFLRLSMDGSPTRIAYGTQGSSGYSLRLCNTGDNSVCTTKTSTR
Sequence of KLK1 (P06870 25-262): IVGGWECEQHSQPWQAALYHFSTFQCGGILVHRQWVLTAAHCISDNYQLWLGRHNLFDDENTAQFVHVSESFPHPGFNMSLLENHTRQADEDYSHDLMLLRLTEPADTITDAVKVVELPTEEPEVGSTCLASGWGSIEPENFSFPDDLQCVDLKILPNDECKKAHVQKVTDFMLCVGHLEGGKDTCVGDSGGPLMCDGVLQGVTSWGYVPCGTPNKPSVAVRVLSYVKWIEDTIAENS

Row | SMILES | half-life [1] [h] | bioavailability [1] [%] | IC50 (Human Factor XIIa) [µM] | IC50 (Plasmin) [µM] | IC50 (Plasma Kallikrein) [µM] | IC50 (KLK1) [µM] | IC50 (Thrombin) [µM] | IC50 (FXa) [µM] | IC50 (Trypsin) [µM] | IC50 (FXIa) [µM]
1 | CC(C)N1C[C@@H]2C[C@H]1CN2CCc1ccc(CNc2cccc3c(N)nccc23)c(F)c1 (stereo in doubt) [Example 2212, N5-[[2-fluoro-4-[2-[(1S,4S)-5-isopropyl-2,5-diazabicyclo[2.2.1]heptan-2-yl]ethyl]phenyl]methyl]isoquinoline-1,5-diamine] | 4.34 | 6.8 | 0.1 to 0.3 | > 40 | 3 to 10 | 10 to 40 | > 40 | > 40 | > 40 | > 40
2 | CN1CCC(COc2cc(CNc3ccc4c(N)ncc(Cl)c4c3)ccn2)CC1 [Example 4268, 4-Chloro-N6-((2-((1-methylpiperidin-4-yl)methoxy)pyridin-4-yl)methyl)isoquinoline-1,6-diamine] | 12.4 | 3 | 0.01 to 0.1 | > 40 | 10 to 40 | 1 to 3 | > 40 | 3 to 10 | > 40 | > 40
3 | Nc1ncc(F)c2c(NCc3ccnc(OCC4CCn5ccnc5C4)c3)cccc12 (stereo not drawn) [Example 4308, 4-fluoro-5-N-[(2-{5H,6H,7H,8H-imidazo[1,2-a]pyridin-7-ylmethoxy}pyridin-4-yl)methyl]isoquinoline-1,5-diamine] | – | – | 3 to 10 | > 40 | > 40 | 10 to 40 | > 40 | > 40 | > 40 | > 40
4 | Cc1cn2c(n1)CC(COc1cc(CNc3cccc4c(N)nccc34)ccn1)CC2 (single isomer, unassigned) [Example 4446, (S*)-N5-((2-((2-methyl-5,6,7,8-tetrahydroimidazo[1,2-a]pyridin-7-yl)methoxy)pyridin-4-yl)methyl)isoquinoline-1,5-diamine] | – | – | 0.01 to 0.1 | > 40 | 3 to 10 | 3 to 10 | > 40 | 3 to 10 | 10 to 40 | 10 to 40
5 | Nc1ncc(Cl)c2cc(NCc3ccnc(OCC4CCn5ccnc5C4)c3)ccc12 (single isomer, unassigned) [Example 4438, (S*)-4-chloro-N6-((2-((5,6,7,8-tetrahydroimidazo[1,2-a]pyridin-7-yl)methoxy)pyridin-4-yl)methyl)isoquinoline-1,6-diamine] | – | – | 0.1 to 0.3 | > 40 | 10 to 40 | 3 to 10 | 10 to 40 | 10 to 40 | > 40 | > 40
6 | CN1CCC(COc2cc(CNc3cc4ccnc(N)c4cn3)ccn2)CC1 [Example 4271, 6-N-({2-[(1-methylpiperidin-4-yl)methoxy]pyridin-4-yl}methyl)-2,7-naphthyridine-1,6-diamine] | – | – | 1 to 3 | > 40 | 10 to 40 | 10 to 40 | 10 to 40 | 0.3 to 1 | > 40 | > 40
7 | Nc1nccc2c(NCc3ccc(N4CCn5ccnc5C4)nc3)cccc12 [Example 1128, 5-N-[(6-{5H,6H,8H-imidazo[1,2-a]piperazin-7-yl}pyridin-3-yl)methyl]isoquinoline-1,5-diamine] | – | – | 0.3 to 1 | > 40 | > 40 | 3 to 10 | 10 to 40 | > 40 | > 40 | > 40
